Experimental data from patent publication EP4703358A1, “BENZO SIX-MEMBERED HETEROCYCLIC GSPT1 PROTEIN DEGRADATION AGENT AND USE THEREOF” (China Pharmaceutical University, priority 2023, dated 2024).

Columns and labels:
GSPT1 protein = target: T1, GSPT1 protein (Homo sapiens, UniProt P15170+Q96SW2); experiment: Degradation of GSPT1 in KG-1 cells (Western blot); format: cell-based; set-up: percent GSPT1 degradation: dose or concentration left out as unconfirmed
T1 construct: host or cells: KG-1 cells
T1 sequence (P15170 whole entry): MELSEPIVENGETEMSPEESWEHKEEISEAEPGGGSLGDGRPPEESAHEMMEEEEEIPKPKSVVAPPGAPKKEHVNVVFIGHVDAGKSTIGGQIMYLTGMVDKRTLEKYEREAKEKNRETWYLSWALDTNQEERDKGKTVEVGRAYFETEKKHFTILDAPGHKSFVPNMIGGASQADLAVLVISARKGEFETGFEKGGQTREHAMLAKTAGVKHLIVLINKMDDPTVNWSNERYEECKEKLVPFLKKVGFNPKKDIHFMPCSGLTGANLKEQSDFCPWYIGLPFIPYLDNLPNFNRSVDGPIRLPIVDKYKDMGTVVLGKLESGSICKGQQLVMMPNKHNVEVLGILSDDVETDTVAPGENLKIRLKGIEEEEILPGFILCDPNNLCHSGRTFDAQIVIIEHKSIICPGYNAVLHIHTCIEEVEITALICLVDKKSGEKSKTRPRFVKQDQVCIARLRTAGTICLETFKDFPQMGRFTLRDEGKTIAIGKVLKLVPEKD
T1 sequence (Q96SW2 whole entry): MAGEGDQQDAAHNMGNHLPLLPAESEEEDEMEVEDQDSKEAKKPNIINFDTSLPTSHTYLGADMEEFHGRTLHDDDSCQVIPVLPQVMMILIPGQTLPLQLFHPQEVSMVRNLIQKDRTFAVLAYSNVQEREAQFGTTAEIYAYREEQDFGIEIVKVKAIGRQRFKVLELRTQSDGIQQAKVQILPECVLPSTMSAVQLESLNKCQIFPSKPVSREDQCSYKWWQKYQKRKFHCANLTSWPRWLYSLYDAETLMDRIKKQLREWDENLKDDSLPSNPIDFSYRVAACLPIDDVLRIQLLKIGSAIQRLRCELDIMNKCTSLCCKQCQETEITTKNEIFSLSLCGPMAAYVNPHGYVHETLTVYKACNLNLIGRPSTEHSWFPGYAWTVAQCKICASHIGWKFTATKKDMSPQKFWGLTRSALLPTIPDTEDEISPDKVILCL
T1 sequence (Q16531 whole entry partner): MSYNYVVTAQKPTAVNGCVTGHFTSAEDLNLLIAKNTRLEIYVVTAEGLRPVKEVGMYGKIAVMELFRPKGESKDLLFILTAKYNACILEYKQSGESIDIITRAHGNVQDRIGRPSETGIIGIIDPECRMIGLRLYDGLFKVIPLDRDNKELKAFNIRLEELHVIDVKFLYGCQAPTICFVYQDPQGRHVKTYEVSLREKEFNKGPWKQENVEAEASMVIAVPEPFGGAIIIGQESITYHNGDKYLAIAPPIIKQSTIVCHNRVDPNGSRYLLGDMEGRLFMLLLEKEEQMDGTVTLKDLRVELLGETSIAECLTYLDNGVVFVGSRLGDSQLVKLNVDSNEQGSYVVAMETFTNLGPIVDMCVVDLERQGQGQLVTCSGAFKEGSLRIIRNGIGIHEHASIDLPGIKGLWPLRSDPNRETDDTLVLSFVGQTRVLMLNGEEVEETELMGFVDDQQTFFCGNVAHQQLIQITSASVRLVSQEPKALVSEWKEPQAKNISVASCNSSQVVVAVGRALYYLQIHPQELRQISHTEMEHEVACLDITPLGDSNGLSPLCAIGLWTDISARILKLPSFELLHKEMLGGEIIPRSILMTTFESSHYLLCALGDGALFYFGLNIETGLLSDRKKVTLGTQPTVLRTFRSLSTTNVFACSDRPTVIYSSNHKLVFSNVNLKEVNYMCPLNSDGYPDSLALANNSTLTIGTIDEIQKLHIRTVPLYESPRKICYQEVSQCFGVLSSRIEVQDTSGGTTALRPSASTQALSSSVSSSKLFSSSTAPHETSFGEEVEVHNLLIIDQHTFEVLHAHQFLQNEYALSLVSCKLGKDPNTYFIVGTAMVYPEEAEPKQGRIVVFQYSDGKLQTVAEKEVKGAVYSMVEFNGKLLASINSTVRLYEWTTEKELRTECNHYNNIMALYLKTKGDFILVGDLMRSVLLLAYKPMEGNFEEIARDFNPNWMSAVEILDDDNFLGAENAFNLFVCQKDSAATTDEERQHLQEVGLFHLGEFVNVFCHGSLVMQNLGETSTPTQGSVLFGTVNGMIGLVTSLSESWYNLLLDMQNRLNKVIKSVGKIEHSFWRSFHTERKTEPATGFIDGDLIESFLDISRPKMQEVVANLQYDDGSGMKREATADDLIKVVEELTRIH
Procedure: KG-1 cells (ATCC) were grown in an IMDM culture medium (containing 20% FBS). After centrifugation and counting, the cell concentration was adjusted. The cells were plated onto 6-well plates at 10^6 cells/well, with 1350 µL per well. 150 µL of DMSO and the test compounds of the present disclosure (compound concentration: 200 nM) were added. The plates were incubated in an incubator at 37 °C with 5% CO2 for 4 hours. The cells were centrifuged, and the culture medium was discarded. PBS was added to wash the cells and then discarded. Whole cell lysates were prepared using a protease inhibitor cocktail (100×, Fude Biological), a protein phosphatase inhibitor cocktail (100×, Fude Biological), SuperNuclease (Beyotime), and a high-intensity RIPA lysis buffer (Thermo Fisher) and placed on ice for 30 minutes. After centrifugation, the cell debris precipitates were discarded, and the whole cell lysate supernatants were collected and transferred to new centrifuge tubes. After a BCA protein assay, samples were prepared using a 5× loading buffer (Thermo Fisher). The samples were subjected to protein electrophoresis separation in a 4-20% precast gel (SDS-PAGE gel), transferred to a PVDF membrane, then blocked with 5% NFDM/TBST at room temperature for 1 hour, incubated overnight with primary antibodies at 4 °C, and incubated with a secondary antibody at room temperature for 2 hours the next day. Signals were detected using a MINICHEMITM imaging system.
Primary antibodies: • Anti-GSPT1: Abcam ab234433 • Anti-beta actin: Fude Biological FD0060
Secondary antibody: Anti-rabbit peroxidase-linked secondary antibody: Fude Biological FDG007
The degradation effects of the compounds on GSPT1 protein are shown in Table 1, where A represents a GSPT1 protein degradation percentage of no less than 80%, B represents a degradation percentage of less than 80% but no less than 50%, C represents a degradation percentage of less than 50% but no less than 25%, and D represents a degradation percentage of less than 25%. Table 1. The degradation of GSPT1 protein by compounds

KG-1 cells = experiment: Antiproliferative activity against KG-1 cells (CCK8); format: cell-based; settings: 72 hours
Procedure: KG-1 cells in the logarithmic growth phase were diluted in a culture medium (RPMI + 10% FBS) and plated onto 96-well plates at 5000 cells/well, and the plates were incubated in an incubator at 37 °C with 5% CO2 for 24 hours. 10 mM stock solutions of the test compounds of the present disclosure in DMSO were prepared and diluted with the culture medium to set 9 concentration gradients. Three replicate wells were set for each concentration. After compound addition, the plates were incubated in an incubator at 37 °C with 5% CO2 for 72 hours. The cell proliferation was assessed using the CCK8 method. The cell growth inhibition IC50 values of the compounds were determined using an enzyme labeling method. The IC50 values were calculated using GraphPad Prism 7 software.
The antiproliferative activity of the compounds against KG-1 cells is shown in Table 2, where A represents IC50 < 1 nM, B represents 1 ≤ IC50 < 10 nM, C represents 10 nM ≤ IC50 < 100 nM, D represents 100 nM ≤ IC50 < 1000 nM, and E represents IC50 ≥ 1000 nM. Table 2. The antiproliferative activity of compounds against KG-1 cells

[1] = KG-1 cells, compound concentration 200 nM, 4 hours

Row | SMILES | percent GSPT1 degradation at 0.2 µM (GSPT1 protein; [1]) [%] | IC50 (KG-1 cells; Homo sapiens) [nM] | GSPT1 degradation (GSPT1 protein; [1]) | IC50 (KG-1 cells) [nM] | percent GSPT1 degradation (GSPT1 protein; KG-1, 4 h, read-out: GSPT1 degradation) [%]
1 | O=C1CCC(N2Cc3cc(CNC(=O)C4COc5ccc(Cl)cc5C4)ccc3C2=O)C(=O)N1 (centres unmarked) [Compound B-3, N-((2-(2,6-Dioxopiperidin-3-yl)-1-oxoisoindolin-5-yl)methyl)-6-chlorochromane-3-carboxamide] | > 80 | 1 to 10 |  |  | 
2 | C=CC(=O)Nc1ccc2c(c1)C=C(C(=O)NCc1ccc3c(c1)CN(C1CCC(=O)NC1=O)C3=O)CO2 (centres unmarked) [Compound A-24, N-((2-(2,6-Dioxopiperidin-3-yl)-1-oxoisoindolin-5-yl)methyl)-6-(acrylamido)-2H-chromene-3-carboxamide] | 25 to 50 | ≥ 1000 |  |  | 
3 | CN(C)c1ccc2c(c1)C=C(C(=O)NCc1ccc3c(c1)CN(C1CCC(=O)NC1=O)C3=O)CO2 (centres unmarked) [Compound A-13, N-((2-(2,6-Dioxopiperidin-3-yl)-1-oxoisoindolin-5-yl)methyl)-6-(dimethylamino)-2H-chromene-3-carboxamide] | 50 to 80 | 10 to 100 |  |  | 
4 | O=C1CCC(N2Cc3cc(CNC(=O)C4=Cc5c(F)ccc(F)c5OC4)ccc3C2=O)C(=O)N1 (centres unmarked) [Compound A-36, N-((2-(2,6-Dioxopiperidin-3-yl)-1-oxoisoindolin-5-yl)methyl)-5,8-difluoro-2H-chromene-3-carboxamide] | > 80 | 1 to 10 |  |  | 
5 | Cc1cc2c(cc1Cl)C=C(C(=O)NCc1ccc3c(c1)CN(C1CCC(=O)NC1=O)C3=O)CO2 (centres unmarked) [Compound A-28] |  |  | A (a GSPT1 protein degradation percentage of no less than 80%) | 10 to 100 | 
6 | COc1cccc2c1OCC(C(=O)NCc1ccc3c(c1)CN(C1CCC(=O)NC1=O)C3=O)=C2 (centres unmarked) [Compound A-20, N-((2-(2,6-Dioxopiperidin-3-yl)-1-oxoisoindolin-5-yl)methyl)-8-methoxy-2H-chromene-3-carboxamide] | > 80 | 1 to 10 |  |  | 
7 | O=C1CCC(N2Cc3cc(CNC(=O)C4=Cc5cc(NC(=O)C6CCC6)ccc5OC4)ccc3C2=O)C(=O)N1 (centres unmarked) [Compound A-27, N-((2-(2,6-Dioxopiperidin-3-yl)-1-oxoisoindolin-5-yl)methyl)-6-(cyclobutanecarboxamido)-2H-chromene-3-carboxamide] | < 25 | 100 to 1000 |  |  | 
8 | Cc1ccc(C)c2c1C=C(C(=O)NCc1ccc3c(c1)CN(C1CCC(=O)NC1=O)C3=O)CO2 (centres unmarked) [Compound A-38, N-((2-(2,6-Dioxopiperidin-3-yl)-1-oxoisoindolin-5-yl)methyl)-5,8-dimethyl-2H-chromene-3-carboxamide] | > 80 | 10 to 100 |  |  | 
9 | C=Cc1ccc2c(c1)C=C(C(=O)NCc1ccc3c(c1)CN(C1CCC(=O)NC1=O)C3=O)CO2 (centres unmarked) [Compound A-14, N-((2-(2,6-Dioxopiperidin-3-yl)-1-oxoisoindolin-5-yl)methyl)-6-vinyl-2H-chromene-3-carboxamide] | 50 to 80 | 10 to 100 |  |  | 
10 | Cc1cccc2c1OCC(C(=O)NCc1ccc3c(c1)CN(C1CCC(=O)NC1=O)C3=O)=C2 (centres unmarked) [Compound A-21, N-((2-(2,6-Dioxopiperidin-3-yl)-1-oxoisoindolin-5-yl)methyl)-8-methyl-2H-chromene-3-carboxamide] | > 80 | 1 to 10 |  |  | 
11 | O=C1CCC(N2Cc3cc(CNC(=O)C4=Cc5c(F)cccc5OC4)ccc3C2=O)C(=O)N1 (centres unmarked) [Compound A-2, N-((2-(2,6-Dioxopiperidin-3-yl)-1-oxoisoindolin-5-yl)methyl)-5-fluoro-2H-chromene-3-carboxamide] | > 80 | 10 to 100 |  |  | 
12 | C#Cc1ccc2c(c1)C=C(C(=O)NCc1ccc3c(c1)CN(C1CCC(=O)NC1=O)C3=O)CO2 (centres unmarked) [Compound A-15, N-((2-(2,6-Dioxopiperidin-3-yl)-1-oxoisoindolin-5-yl)methyl)-6-ethynyl-2H-chromene-3-carboxamide] | 50 to 80 | 100 to 1000 |  |  | 
13 | Nc1ccc2c(c1)C=C(C(=O)NCc1ccc3c(c1)CN(C1CCC(=O)NC1=O)C3=O)CO2 (centres unmarked) [Compound A-12, N-((2-(2,6-Dioxopiperidin-3-yl)-1-oxoisoindolin-5-yl)methyl)-6-amino-2H-chromene-3-carboxamide] | > 80 | 10 to 100 |  |  | 
14 | O=C1CCC(N2Cc3cc(CNC(=O)C4=Cc5cc(Cl)ccc5OC4)ccc3C2=O)C(=O)N1 (centres unmarked) [Compound A-6, N-((2-(2,6-Dioxopiperidin-3-yl)-1-oxoisoindolin-5-yl)methyl)-6-chloro-2H-chromene-3-carboxamide] |  | 10 to 100 |  |  | > 80
15 | COc1cccc2c1C=C(C(=O)NCc1ccc3c(c1)CN(C1CCC(=O)NC1=O)C3=O)CO2 (centres unmarked) [Compound A-9, N-((2-(2,6-Dioxopiperidin-3-yl)-1-oxoisoindolin-5-yl)methyl)-5-methoxy-2H-chromene-3-carboxamide] | > 80 | 1 to 10 |  |  | 
16 | O=C1CCC(N2Cc3cc(CNC(=O)C4=Cc5cc(NC(=O)C6CC6)ccc5OC4)ccc3C2=O)C(=O)N1 (centres unmarked) [Compound A-26, N-((2-(2,6-Dioxopiperidin-3-yl)-1-oxoisoindolin-5-yl)methyl)-6-(cyclopropanecarboxamido)-2H-chromene-3-carboxamide] | < 25 | 100 to 1000 |  |  | 
17 | Cc1ccc2c(c1)C=C(C(=O)NCc1ccc3c(c1)CN(C1CCC(=O)NC1=O)C3=O)CO2 (centres unmarked) [Compound A-7, N-((2-(2,6-Dioxopiperidin-3-yl)-1-oxoisoindolin-5-yl)methyl)-6-methyl-2H-chromene-3-carboxamide] | > 80 | 1 to 10 |  |  | 
18 | O=C1CCC(N2Cc3cc(CNC(=O)C4=Cc5ccc(F)c(F)c5OC4)ccc3C2=O)C(=O)N1 (centres unmarked) [Compound A-32, N-((2-(2,6-Dioxopiperidin-3-yl)-1-oxoisoindolin-5-yl)methyl)-7,8-difluoro-2H-chromene-3-carboxamide] | > 80 | 1 to 10 |  |  | 
19 | Cc1cc2c(cc1Cl)OCC(C(=O)NCc1ccc3c(c1)CN(C1CCC(=O)NC1=O)C3=O)=C2 (centres unmarked) [Compound A-29, N-((2-(2,6-Dioxopiperidin-3-yl)-1-oxoisoindolin-5-yl)methyl)-7-chloro-6-methyl-2H-chromene-3-carboxamide] | > 80 | 10 to 100 |  |  | 
